ChEMBL document CHEMBL1208728, “Design, synthesis, and structure-activity relationships of pyrazole derivatives as potential FabH inhibitors” (Bioorg Med Chem Lett, 2010)
In brackets after ≈: the same amount, converted by molar mass.

Assays:
Type in all cases: functional
Pseudomonas aeruginosa = assay: Antimicrobial activity against Pseudomonas aeruginosa ATCC 13525 by MTT assay
Staphylococcus aureus = assay: Antimicrobial activity against Staphylococcus aureus ATCC 6538 by MTT assay
Escherichia coli = assay: Antimicrobial activity against Escherichia coli ATCC 35218 by MTT assay
Enterococcus faecalis = assay: Antimicrobial activity against Streptococcus faecalis ATCC 9790 by MTT assay
Enterobacter cloacae = assay: Antimicrobial activity against Enterobacter cloacae ATCC 13047 by MTT assay
Bacillus subtilis = assay: Antimicrobial activity against Bacillus subtilis ATCC 6633 by MTT assay

| Compound | MIC (Pseudomonas aeruginosa) [µg/mL] | MIC (Staphylococcus aureus) [µg/mL] | MIC (Escherichia coli) [µg/mL] | MIC (Enterococcus faecalis) [µg/mL] | MIC (Enterobacter cloacae) [µg/mL] | MIC (Bacillus subtilis) [µg/mL] |
| --- | --- | --- | --- | --- | --- | --- |
| COc1cc(OC)cc(C2CC(c3ccc(Cl)c(Cl)c3)=NN2C(C)=O)c1 (centres undefined) | 12.5 (≈ 31.8 µM) | 25 (≈ 63.6 µM) | > 50 | 50 (≈ 127 µM) | 12.5 (≈ 31.8 µM) | 12.5 (≈ 31.8 µM) |
| COc1cc(OC)cc(C2CC(c3ccccc3)=NN2C(C)=O)c1 (centres undefined) | 25 (≈ 77.1 µM) | 25 (≈ 77.1 µM) | 25 (≈ 77.1 µM) | 25 (≈ 77.1 µM) | > 50 | 12.5 (≈ 38.5 µM) |
| COc1ccc(C2CC(c3ccccc3F)=NN2C(C)=O)cc1 (centres undefined) | 25 (≈ 80 µM) | 25 (≈ 80 µM) | 12.5 (≈ 40 µM) | 12.5 (≈ 40 µM) | 25 (≈ 80 µM) | 6.25 (≈ 20 µM) |
| CC(=O)N1N=C(c2ccc(C)c(C)c2)CC1c1ccc(C)cc1 (centres undefined) | 3.12 (≈ 10.2 µM) | 3.12 (≈ 10.2 µM) | > 50 | 12.5 (≈ 40.8 µM) | > 50 | 12.5 (≈ 40.8 µM) |
| CC(=O)N1N=C(c2ccccc2)CC1c1ccc(F)cc1 (centres undefined) | 12.5 (≈ 44.3 µM) | 25 (≈ 88.6 µM) | 25 (≈ 88.6 µM) | 50 (≈ 177 µM) | 12.5 (≈ 44.3 µM) | 25 (≈ 88.6 µM) |
| CC(=O)N1N=C(c2ccc(Br)cc2)CC1c1ccc(Cl)cc1 (centres undefined) | 3.12 (≈ 8.27 µM) | 3.12 (≈ 8.27 µM) | 25 (≈ 66.2 µM) | 6.25 (≈ 16.5 µM) | 12.5 (≈ 33.1 µM) | 25 (≈ 66.2 µM) |
| CC(=O)N1N=C(c2ccccc2F)CC1c1ccc(C)cc1 (centres undefined) | > 50 | > 50 | 25 (≈ 84.4 µM) | 25 (≈ 84.4 µM) | 12.5 (≈ 42.2 µM) | 25 (≈ 84.4 µM) |
| CC(=O)N1N=C(c2ccc(Cl)cc2)CC1c1ccc(Cl)cc1 (centres undefined) | 6.25 (≈ 18.8 µM) | 25 (≈ 75 µM) | 12.5 (≈ 37.5 µM) | 6.25 (≈ 18.8 µM) | 25 (≈ 75 µM) | 12.5 (≈ 37.5 µM) |
| CC(=O)N1N=C(c2ccc(Cl)c(Cl)c2)CC1c1ccc(F)cc1 (centres undefined) | 12.5 (≈ 35.6 µM) | 12.5 (≈ 35.6 µM) | 12.5 (≈ 35.6 µM) | 1.56 (≈ 4.45 µM) | 12.5 (≈ 35.6 µM) | 1.56 (≈ 4.45 µM) |
| COc1ccc(C2CC(c3ccc(Br)cc3)=NN2C(C)=O)cc1 (centres undefined) | 1.56 (≈ 4.18 µM) | 12.5 (≈ 33.5 µM) | 50 (≈ 134 µM) | 6.25 (≈ 16.7 µM) | 3.12 (≈ 8.37 µM) | 25 (≈ 67 µM) |
| COc1ccc(C2CC(c3ccc(Cl)cc3)=NN2C(C)=O)cc1 (centres undefined) | 25 (≈ 76 µM) | > 50 | 25 (≈ 76 µM) | 25 (≈ 76 µM) | > 50 | 12.5 (≈ 38 µM) |
| CC(=O)N1N=C(c2ccc(Cl)c(Cl)c2)CC1c1ccccc1Cl (centres undefined) | 12.5 (≈ 34 µM) | 25 (≈ 68 µM) | 12.5 (≈ 34 µM) | 12.5 (≈ 34 µM) | 25 (≈ 68 µM) | 3.12 (≈ 8.5 µM) |
| CC(=O)N1N=C(c2ccc(Cl)cc2)CC1c1ccc(C)cc1 (centres undefined) | 12.5 (≈ 40 µM) | 12.5 (≈ 40 µM) | 12.5 (≈ 40 µM) | 25 (≈ 79.9 µM) | 12.5 (≈ 40 µM) | 6.25 (≈ 20 µM) |
| COc1ccc(C2CC(c3ccccc3)=NN2C(C)=O)cc1 (centres undefined) | 12.5 (≈ 42.5 µM) | 12.5 (≈ 42.5 µM) | > 50 | 50 (≈ 170 µM) | > 50 | > 50 |
| CC1(C)S[C@@H]2[C@H](NC(=O)Cc3ccccc3)C(=O)N2[C@H]1C(=O)O [PENICILLIN G] | 6.25 (≈ 18.7 µM) | 6.25 (≈ 18.7 µM) | 3.12 (≈ 9.35 µM) | 1.56 (≈ 4.67 µM) | 3.12 (≈ 9.35 µM) | 1.56 (≈ 4.67 µM) |
| COc1cc(OC)cc(C2CC(c3ccc(Cl)cc3)=NN2C(C)=O)c1 (centres undefined) | 25 (≈ 69.7 µM) | 6.25 (≈ 17.4 µM) | 12.5 (≈ 34.8 µM) | 50 (≈ 139 µM) | > 50 | 6.25 (≈ 17.4 µM) |
| CC(=O)N1N=C(c2ccc(C)c(C)c2)CC1c1ccccc1 (centres undefined) | 12.5 (≈ 42.8 µM) | 25 (≈ 85.5 µM) | > 50 | 25 (≈ 85.5 µM) | > 50 | > 50 |

| Compound | MIC (Pseudomonas aeruginosa) [µg/mL] | MIC (Staphylococcus aureus) [µg/mL] | MIC (Escherichia coli) [µg/mL] | MIC (Enterococcus faecalis) [µg/mL] | MIC (Enterobacter cloacae) [µg/mL] | MIC (Bacillus subtilis) [µg/mL] |
| --- | --- | --- | --- | --- | --- | --- |
| CC(=O)N1N=C(c2ccc(Cl)cc2)CC1c1ccccc1 (centres undefined) | > 50 | > 50 | 25 (≈ 83.7 µM) | 25 (≈ 83.7 µM) | 12.5 (≈ 41.8 µM) | 12.5 (≈ 41.8 µM) |
| CC(=O)N1N=C(c2ccccc2)CC1c1ccc(Br)cc1 (centres undefined) | 25 (≈ 72.8 µM) | > 50 | 12.5 (≈ 36.4 µM) | 12.5 (≈ 36.4 µM) | 12.5 (≈ 36.4 µM) | 25 (≈ 72.8 µM) |
| CC(=O)N1N=C(c2ccc(Cl)c(Cl)c2)CC1c1ccc(Cl)cc1 (centres undefined) | 25 (≈ 68 µM) | 25 (≈ 68 µM) | 25 (≈ 68 µM) | 6.25 (≈ 17 µM) | > 50 | 0.78 (≈ 2.12 µM) |
| CC(=O)N1N=C(c2ccccc2F)CC1c1ccccc1Cl (centres undefined) | 12.5 (≈ 39.5 µM) | 12.5 (≈ 39.5 µM) | 12.5 (≈ 39.5 µM) | 25 (≈ 78.9 µM) | 12.5 (≈ 39.5 µM) | 6.25 (≈ 19.7 µM) |
| CC(=O)N1N=C(c2ccccc2F)CC1c1ccc(F)cc1 (centres undefined) | 12.5 (≈ 41.6 µM) | > 50 | 50 (≈ 166 µM) | 50 (≈ 166 µM) | > 50 | 25 (≈ 83.2 µM) |
| CC(=O)N1N=C(c2ccccc2)CC1c1ccc(C)cc1 (centres undefined) | 12.5 (≈ 44.9 µM) | > 50 | 25 (≈ 89.8 µM) | 6.25 (≈ 22.5 µM) | 25 (≈ 89.8 µM) | > 50 |
| CC(=O)N1N=C(c2ccc(Cl)cc2)CC1c1ccccc1Cl (centres undefined) | 12.5 (≈ 37.5 µM) | 25 (≈ 75 µM) | 12.5 (≈ 37.5 µM) | 50 (≈ 150 µM) | 12.5 (≈ 37.5 µM) | 6.25 (≈ 18.8 µM) |
| CC(=O)N1N=C(c2ccc(Cl)c(Cl)c2)CC1c1ccc(C)cc1 (centres undefined) | 25 (≈ 72 µM) | > 50 | > 50 | 12.5 (≈ 36 µM) | 25 (≈ 72 µM) | 6.25 (≈ 18 µM) |
| CC(=O)N1N=C(c2ccccc2F)CC1c1ccccc1 (centres undefined) | 25 (≈ 88.6 µM) | 25 (≈ 88.6 µM) | > 50 | 25 (≈ 88.6 µM) | > 50 | 12.5 (≈ 44.3 µM) |
| CC(=O)N1N=C(c2ccc(C)c(C)c2)CC1c1ccccc1Cl (centres undefined) | 6.25 (≈ 19.1 µM) | 25 (≈ 76.5 µM) | 25 (≈ 76.5 µM) | 50 (≈ 153 µM) | > 50 | > 50 |
| NC[C@H]1O[C@H](O[C@H]2[C@H](O)[C@@H](O[C@H]3O[C@H](CO)[C@@H](O)[C@H](N)[C@H]3O)[C@H](N)C[C@@H]2N)[C@H](N)[C@@H](O)[C@@H]1O [BEKANAMYCIN] | 3.12 (≈ 6.46 µM) | 3.12 (≈ 6.46 µM) | 1.56 (≈ 3.23 µM) | 3.12 (≈ 6.46 µM) | 1.56 (≈ 3.23 µM) | 0.39 (≈ 0.807 µM) |
| CC(=O)N1N=C(c2ccc(Cl)cc2)CC1c1ccc(Br)cc1 (centres undefined) | > 50 | 25 (≈ 66.2 µM) | 12.5 (≈ 33.1 µM) | 6.25 (≈ 16.5 µM) | > 50 | 6.25 (≈ 16.5 µM) |
| CC(=O)N1N=C(c2ccc(Br)cc2)CC1c1ccc(C)cc1 (centres undefined) | 1.56 (≈ 4.37 µM) | 6.25 (≈ 17.5 µM) | 25 (≈ 70 µM) | 50 (≈ 140 µM) | 6.25 (≈ 17.5 µM) | 25 (≈ 70 µM) |
| CC(=O)N1N=C(c2ccc(C)c(C)c2)CC1c1ccc(F)cc1 (centres undefined) | 6.25 (≈ 20.1 µM) | 1.56 (≈ 5.03 µM) | 25 (≈ 80.5 µM) | 12.5 (≈ 40.3 µM) | 12.5 (≈ 40.3 µM) | 25 (≈ 80.5 µM) |
| CC(=O)N1N=C(c2ccc(C)c(C)c2)CC1c1ccc(Br)cc1 (centres undefined) | 12.5 (≈ 33.7 µM) | 12.6 (≈ 33.9 µM) | 25 (≈ 67.3 µM) | 50 (≈ 135 µM) | 3.12 (≈ 8.42 µM) | 25 (≈ 67.3 µM) |
| COc1ccc(C2=NN(C(C)=O)C(c3cc(OC)cc(OC)c3)C2)cc1 (centres undefined) | 12.5 (≈ 35.3 µM) | 12.5 (≈ 35.3 µM) | 12.5 (≈ 35.3 µM) | 50 (≈ 141 µM) | 6.25 (≈ 17.6 µM) | 6.25 (≈ 17.6 µM) |
| COc1cc(OC)cc(C2CC(c3ccccc3F)=NN2C(C)=O)c1 (centres undefined) | 12.5 (≈ 36.5 µM) | 25 (≈ 73 µM) | 12.5 (≈ 36.5 µM) | 12.5 (≈ 36.5 µM) | > 50 | 6.25 (≈ 18.3 µM) |
